# According to ChEMBL document CHEMBL1811893, “Seco-eremophiladiolides and eremophilane glucosides from Pittocaulon velatum” (J Nat Prod, 2011):
# Calls of active or inactive are those of the source. The rule behind the calls is not given here.
# Tested on: Rattus norvegicus
# Experiment: Antiinflammatory activity in Lewis rat assessed as inhibition of TPA-induced ear edema
# Format: functional, organism-based
row,SMILES,Activity
1,C[C@H]1C[C@@H](O)C[C@H]2C(=O)c3occ(CO)c3[C@@H](O)[C@]12C,inactive
2,C/C(=C\O[C@@H]1O[C@H](CO)[C@@H](O)[C@H](O)[C@H]1O)[C@@H]1C[C@@]2(C)C(=CC1=O)CC[C@@H](O)[C@@H]2C,inactive
3,C/C(=C\O[C@@H]1O[C@H](CO)[C@@H](O)[C@H](O)[C@H]1O)[C@@H]1C[C@@]2(C)C(=CC1=O)CC[C@H](O)[C@@H]2C,inactive
4,CC1=C([C@H]2OC(=O)[C@@H]3CCC[C@H](C)[C@@]23C)C(=O)OC1,inactive
5,Cc1coc2c1[C@@H](OCC(C)C)[C@]1(C)[C@@H](C)CCC[C@H]1C2=O,inactive
6,Cc1coc2c1[C@@H](OCC(C)C)[C@]1(C)[C@@H](C)CC[C@H]3O[C@]31C2=O,inactive
7,C/C(=C\O[C@@H]1O[C@H](CO)[C@@H](O)[C@H](O)[C@H]1O)[C@@H]1C[C@@]2(C)C(=CC1=O)CCC[C@@H]2C,inactive
8,CC1=C([C@@H]2OC(=O)[C@@H]3CCC[C@H](C)[C@]32C)C(=O)OC1,inactive
9,C/C(=C\O[C@@H]1O[C@H](CO)[C@@H](O)[C@H](O)[C@H]1O)[C@@H]1C[C@@]2(C)C(=CC1=O)[C@H](O)CC[C@@H]2C,inactive
